We go through 41 compounds from ChEMBL document CHEMBL2203185, “Development of sub-nanomolar dipeptidic ligands of neuropeptide FF receptors” (Bioorg Med Chem Lett, 2012).

Common to all, as to format: cell-based
For test [1], the target named is T1, Neuropeptide FF receptor 2 (Homo sapiens, UniProt Q9Y5X5). Put plainly: Displacement of [3H]FFRF-NH2 from human flag-tagged NPFF2 receptor expressed in CHO cells by scintillation counting. For orientation: Displacement assays read how much labelled ligand stays bound in the presence of the test substance.
T1 sequence (Q9Y5X5 whole entry): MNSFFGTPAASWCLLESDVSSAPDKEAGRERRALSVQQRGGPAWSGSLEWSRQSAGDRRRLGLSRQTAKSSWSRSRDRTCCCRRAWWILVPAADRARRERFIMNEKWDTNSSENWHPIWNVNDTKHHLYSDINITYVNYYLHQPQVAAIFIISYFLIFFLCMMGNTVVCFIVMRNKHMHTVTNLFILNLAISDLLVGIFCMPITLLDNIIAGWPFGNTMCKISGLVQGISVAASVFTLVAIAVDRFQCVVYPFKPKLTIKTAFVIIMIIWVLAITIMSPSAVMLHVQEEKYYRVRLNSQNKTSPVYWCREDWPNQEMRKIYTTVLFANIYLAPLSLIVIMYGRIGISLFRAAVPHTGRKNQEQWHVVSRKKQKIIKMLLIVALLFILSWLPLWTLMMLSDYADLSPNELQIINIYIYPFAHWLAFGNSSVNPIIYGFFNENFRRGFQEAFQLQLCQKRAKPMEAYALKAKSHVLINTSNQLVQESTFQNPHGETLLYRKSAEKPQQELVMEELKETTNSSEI
Test [2] addresses T2, Neuropeptide FF receptor 1 (Homo sapiens, UniProt Q9GZQ6). Put plainly: Displacement of [3H]FFRF-NH2 from human flag-tagged NPFF1 receptor expressed in CHO cells by scintillation counting.
In test [3] the target is T2, Neuropeptide FF receptor 1. The experiment in a line: Displacement of [3H]FFRF-NH2 from human flag-tagged NPFF1 receptor expressed in CHO cells at 5 uM by scintillation counting.
Test [4] addresses T2, Neuropeptide FF receptor 1. The experiment in a line: Displacement of [3H]FFRF-NH2 from human flag-tagged NPFF1 receptor expressed in CHO cells at 500 nM by scintillation counting.
For test [5], the target named is T1, Neuropeptide FF receptor 2. Put plainly: Displacement of [3H]FFRF-NH2 from human flag-tagged NPFF2 receptor expressed in CHO cells at 500 nM by scintillation counting.
The target in test [6] is T1, Neuropeptide FF receptor 2. The experiment in a line: Displacement of [3H]FFRF-NH2 from human flag-tagged NPFF2 receptor expressed in CHO cells at 5 uM by scintillation counting.

T2 sequence (Q9GZQ6 whole entry): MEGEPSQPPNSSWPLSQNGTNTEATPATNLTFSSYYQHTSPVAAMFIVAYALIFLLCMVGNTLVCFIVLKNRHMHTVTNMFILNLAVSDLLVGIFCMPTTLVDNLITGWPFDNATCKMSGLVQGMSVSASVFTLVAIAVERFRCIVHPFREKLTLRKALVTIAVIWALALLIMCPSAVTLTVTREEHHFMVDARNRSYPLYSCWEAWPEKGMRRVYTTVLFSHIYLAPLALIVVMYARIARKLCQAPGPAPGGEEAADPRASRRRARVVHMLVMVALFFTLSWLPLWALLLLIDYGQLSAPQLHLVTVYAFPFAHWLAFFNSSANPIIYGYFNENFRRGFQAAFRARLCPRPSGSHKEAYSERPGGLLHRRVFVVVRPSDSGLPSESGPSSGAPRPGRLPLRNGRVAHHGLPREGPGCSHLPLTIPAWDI

For the compound `NC(=O)[C@@H](Cc1ccccc1)NC(=O)[C@@H](CCCN=C(N)N)NC(=O)C12CC3CC(CC(C3)C1)C2`, the figures for the Ki in test [1] and in test [2] were 208 nM and 51 nM, respectively.
On the same counts, the results for `NC(=O)[C@@H](Cc1ccccc1)NC(=O)[C@@H](CCCN=C(N)N)NC(=O)c1ccccc1` are 2020 nM and 198 nM.
Take `NC(=O)[C@H](Cc1ccccc1)NC(=O)[C@H](CCCN=C(N)N)NC(=O)c1ccc2ccccc2n1`: the Ki (usually a dissociation constant, usually derived from enzyme kinetics or from competition with a known ligand) in test [1] is 47 nM; in test [2], 121 nM.
As for `NC(=O)[C@@H](Cc1ccccc1)NC(=O)[C@@H](CCCN=C(N)N)NC(=O)c1ccccc1-c1ccccc1`, the inhibition constant (Ki) in test [1] came out at 155 nM; in test [2], 5 nM.
In the case of `N=C(N)NCCC[C@H](NC(=O)C12CC3CC(CC(C3)C1)C2)C(=O)N[C@H](Cc1ccccc1)C(N)=O`, the inhibition (as a rule, the change of the read-out against control, counted positive when it falls) in test [3] is 79%; in test [4], 18%; in test [5] it was 4%; in test [6], 49%. Besides, the Ki in test [1] stood at 424 nM; in test [2], 114 nM.
In the case of `NC(=O)[C@H](Cc1ccccc1)NC(=O)[C@H](CCCN=C(N)N)NC(=O)c1cccc2ccccc12`, the figures for the Ki in test [1] and in test [2] were 141 nM and 87 nM, respectively.
For `NC(=O)[C@H](Cc1ccccc1)NC(=O)[C@H](CCCN=C(N)N)NC(=O)c1ccccc1-c1ccccc1`, the Ki in test [1] came to 590 nM; in test [2] it was 0.32 nM.
For the compound `NC(=O)[C@H](Cc1ccccc1)NC(=O)[C@@H](CCCN=C(N)N)NC(=O)c1ccc(-c2ccccc2)cc1`, the values for the Ki in test [1] and in test [2] were 94 nM and 2 nM, respectively.
For `COc1cccc(C(=O)N[C@@H](CCCNC(=N)N)C(=O)N[C@@H](Cc2ccccc2)C(N)=O)c1`, the inhibition in test [3] came out at 85%; in test [4], 11%; in test [5], 5%; in test [6], 60%. Moreover, the inhibition constant (Ki) stood at 206 nM in test [1] and 106 nM in test [2].
As for `NC(=O)[C@@H](Cc1ccccc1)NC(=O)[C@@H](CCCN=C(N)N)NC(=O)c1cccc(-c2ccccc2)c1`, the inhibitory constant (Ki) worked out at 672 nM in test [1] and 110 nM in test [2].
For `N=C(N)NCCC[C@@H](NC(=O)c1ccccc1-c1ccccc1)C(=O)N[C@H](Cc1ccccc1)C(N)=O`, the inhibition in test [3] was 92%; in test [4], 85%; in test [5], 8%; in test [6], 70%.
As to `N=C(N)NCCC[C@H](NC(=O)c1ccc(Cl)c(Cl)c1)C(=O)N[C@@H](Cc1ccccc1)C(N)=O`, the inhibition in test [3] is 77%; in test [4], 25%; in test [5], 12%; in test [6], 67%.
Take `N=C(N)NCCC[C@H](NC(=O)c1ccc2ccccc2c1)C(=O)N[C@@H](Cc1ccccc1)C(N)=O`: the inhibition in test [3] was 81%; in test [4], 27%; in test [5], 23%; in test [6], 56%.
For `N=C(N)NCCC[C@H](NC(=O)c1ccc2ccccc2n1)C(=O)N[C@@H](Cc1ccccc1)C(N)=O` the same measures were 100%, 34%, 28% and 82%.
As for `NC(=O)[C@H](Cc1ccccc1)NC(=O)[C@H](CCCN=C(N)N)NC(=O)CCN1c2ccccc2Sc2ccccc21`, the inhibitory constant (Ki) in test [2] came to 0.9 nM.
Take `N=C(N)NCCC[C@H](NC(=O)c1ccc(-c2ccccc2)cc1)C(=O)N[C@@H](Cc1ccccc1)C(N)=O`: the inhibition in test [3] amounted to 43%; in test [4], 20%; in test [5], 0%; in test [6], 15%.
For `N=C(N)NCCC[C@H](NC(=O)c1ccco1)C(=O)N[C@@H](Cc1ccccc1)C(N)=O`, the inhibition in test [3] was determined as 92%; in test [4] it was 42%; in test [5], 3%; in test [6], 23%.
In the case of `CCCCCCCCCCC(=O)N[C@@H](CCCNC(=N)N)C(=O)N[C@@H](Cc1ccccc1)C(N)=O`, the inhibition in test [3] was 100%; in test [4], 44%; in test [5], 13%; in test [6] it was 33%.
On to `N=C(N)NCCC[C@H](NC(=O)c1ccc(Cl)cc1Cl)C(=O)N[C@@H](Cc1ccccc1)C(N)=O`, for which the inhibition came to 75% in test [3], 0% in test [4], 2% in test [5] and 38% in test [6].
For `N=C(N)NCCC[C@H](NC(=O)c1ccc(C(=O)c2ccccc2)cc1)C(=O)N[C@@H](Cc1ccccc1)C(N)=O` the same measures were 68%, 14%, 4% and 43%.
On the same counts, the results for `N=C(N)NCCC[C@H](NC(=O)Cc1ccc(O)c(O)c1)C(=O)N[C@@H](Cc1ccccc1)C(N)=O` are 61%, 0%, 17% and 38%.
For `N=C(N)NCCC[C@H](NC(=O)c1ccncc1)C(=O)N[C@@H](Cc1ccccc1)C(N)=O` the same measures were 74%, 18%, 2% and 21%.
Consider `N=C(N)NCCC[C@H](NC(=O)/C=C/c1cnc[nH]1)C(=O)N[C@@H](Cc1ccccc1)C(N)=O`, for which the inhibition amounted to 22% in test [3], 1% in test [4], 0% in test [5] and 18% in test [6].
On the same counts, the results for `N=C(N)NCCC[C@@H](NC(=O)c1ccc(-c2ccccc2)cc1)C(=O)N[C@@H](Cc1ccccc1)C(N)=O` are 92%, 81%, 43% and 57%.
For `N=C(N)NCCC[C@H](NC(=O)CC(c1ccccc1)c1ccccc1)C(=O)N[C@@H](Cc1ccccc1)C(N)=O` the same measures were 89%, 37%, 16% and 40%.
As for `NC(=O)[C@@H](Cc1ccccc1)NC(=O)[C@@H](CCCN=C(N)N)NC(=O)Cc1ccccc1`, the Ki was found to be 3200 nM in test [1] and 273 nM in test [2].
On to `N=C(N)NCCC[C@H](NC(=O)c1ccccc1-c1ccccc1)C(=O)N[C@@H](Cc1ccccc1)C(N)=O`, for which the inhibition in test [3] came to 100%; in test [4] it was 96%; in test [5], 22%; in test [6], 30%.
Regarding `N=C(N)NCCC[C@H](NC(=O)c1cccnc1)C(=O)N[C@@H](Cc1ccccc1)C(N)=O`, the inhibition came out at 64% in test [3], 11% in test [4], 9% in test [5] and 23% in test [6].
On to `NC(=O)[C@H](Cc1ccccc1)NC(=O)[C@@H](CCCN=C(N)N)NC(=O)Cc1ccccc1`, for which the Ki in test [1] was determined as 425 nM; in test [2], 35 nM.
On to `NC(=O)[C@@H](Cc1ccccc1)NC(=O)[C@@H](CCCN=C(N)N)NC(=O)c1ccc(-c2ccccc2)cc1`, for which the Ki came out at 417 nM in test [1] and 167 nM in test [2].
For `NC(=O)[C@H](Cc1ccccc1)NC(=O)[C@H](CCCN=C(N)N)NC(=O)C12CC3CC(CC(C3)C1)C2`, the figures for the Ki in test [1] and in test [2] were 43 nM and 22 nM, respectively.
With `COc1cccc(CC(=O)N[C@@H](CCCNC(=N)N)C(=O)N[C@@H](Cc2ccccc2)C(N)=O)c1`, the inhibition in test [3] turned out to be 89%; in test [4], 42%; in test [5] it was 19%; in test [6] it was 50%.
On to `N=C(N)NCCC[C@H](NC(=O)C12CC3CC(CC(C3)C1)C2)C(=O)N[C@@H](Cc1ccccc1)C(N)=O`, for which the inhibition stood at 97% in test [3], 60% in test [4], 40% in test [5] and 85% in test [6].
Take `N=C(N)NCCC[C@H](NC(=O)/C=C/c1ccccc1O)C(=O)N[C@@H](Cc1ccccc1)C(N)=O`: the inhibition amounted to 82% in test [3], 25% in test [4], 17% in test [5] and 77% in test [6].
Take `NC(=O)[C@H](Cc1ccccc1)NC(=O)[C@@H](CCCN=C(N)N)NC(=O)c1cccc(-c2ccccc2)c1`: the Ki in test [1] is 9 nM; in test [2], 6 nM.
With `N=C(N)NCCC[C@H](NC(=O)/C=C/c1ccccc1)C(=O)N[C@@H](Cc1ccccc1)C(N)=O`, the inhibition in test [3] turned out to be 58%; in test [4], 3%; in test [5], 24%; in test [6], 46%.
On the same counts, the results for `N=C(N)NCCC[C@H](NC(=O)Cc1ccccc1O)C(=O)N[C@@H](Cc1ccccc1)C(N)=O` are 92%, 27%, 16% and 37%.
Regarding `N=C(N)NCCC[C@H](NC(=O)Cc1ccccc1Cl)C(=O)N[C@@H](Cc1ccccc1)C(N)=O`, the inhibition in test [3] is 83%; in test [4], 47%; in test [5], 16%; in test [6] it was 60%.
As to `COc1ccc(C(=O)N[C@@H](CCCNC(=N)N)C(=O)N[C@@H](Cc2ccccc2)C(N)=O)cc1OC`, the inhibition in test [3] came out at 65%; in test [4], 13%; in test [5], 0%; in test [6] it was 27%.
Turning to `Cc1ccc(CC(=O)N[C@@H](CCCNC(=N)N)C(=O)N[C@@H](Cc2ccccc2)C(N)=O)cc1`, the inhibition in test [3] amounted to 72%; in test [4], 34%; in test [5], 5%; in test [6], 14%.
With `N=C(N)NCCC[C@H](NC(=O)c1[nH]c2ccccc2c1-c1ccccc1)C(=O)N[C@@H](Cc1ccccc1)C(N)=O`, the inhibition in test [3] came to 92%; in test [4] it was 39%; in test [5] it was 14%; in test [6] it was 27%.
